Measured values published in patent US8192962B2, “Processes for detecting toxic substances” (Daikin Industries, Ltd., priority 2001, dated 2012).

Test system: Metabolism protein genes
Experiment: DNA chip mRNA expression in yeast, metabolism protein genes (Table 7)
Assay type: cell-based, Saccharomyces cerevisiae S288C
Procedure, shortened: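 Measured as treated-to-untreated fluorescence ratio on a full-genome yeast DNA chip. Cells (S288C, YPD, 25° C.) were exposed in log phase for two hours to one chemical, dosed to curb growth without killing.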

CCCCC[C@H](O)CC(=O)CCc1ccc(O)c(OC)c1 [(13), gingerol]
The level of expressed mRNA in the presence of chemical substance/The level of expressed mRNA in the absence of chemical substance (yeast gene YAL012W): 1.1 | The level of expressed mRNA in the presence of chemical substance/The level of expressed mRNA in the absence of chemical substance (yeast gene YAL038W): 1.8 | The level of expressed mRNA in the presence of chemical substance/The level of expressed mRNA in the absence of chemical substance (yeast gene YAL044C): 1.1 | The level of expressed mRNA in the presence of chemical substance/The level of expressed mRNA in the absence of chemical substance (yeast gene YAL054C): 1.8 | The level of expressed mRNA in the presence of chemical substance/The level of expressed mRNA in the absence of chemical substance (yeast gene YAR071W): 0.3 | The level of expressed mRNA in the presence of chemical substance/The level of expressed mRNA in the absence of chemical substance (yeast gene YBL001C): 1.0 | level of expressed mRNA in the presence/in the absence of chemical substance (yeast gene YBR003W): 1.2 | level of expressed mRNA in the presence/in the absence of chemical substance (yeast gene YBR011C): 1.5 | The level of expressed mRNA in the presence of chemical substance/The level of expressed mRNA in the absence of chemical substance (yeast gene YBR014C): 0.9 | level of expressed mRNA in the presence/in the absence of chemical substance (yeast gene YBR020W): 1.1 | The level of expressed mRNA in the presence of chemical substance/The level of expressed mRNA in the absence of chemical substance (yeast gene YBR023C): 0.5 | The level of expressed mRNA in the presence of chemical substance/The level of expressed mRNA in the absence of chemical substance (yeast gene YBR029C): 1.7 | The level of expressed mRNA in the presence of chemical substance/The level of expressed mRNA in the absence of chemical substance (yeast gene YBR035C): 1.8 | The level of expressed mRNA in the presence of chemical substance/The level of expressed mRNA in the absence of chemical substance (yeast gene YBR068C): 2.2 | The level of expressed mRNA in the presence of chemical substance/The level of expressed mRNA in the absence of chemical substance (yeast gene YBR111C): 1.6 | The level of expressed mRNA in the presence of chemical substance/The level of expressed mRNA in the absence of chemical substance (yeast gene YBR183W): 1.4 | The level of expressed mRNA in the presence of chemical substance/The level of expressed mRNA in the absence of chemical substance (yeast gene YBR222C): 1.6 | The level of expressed mRNA in the presence of chemical substance/The level of expressed mRNA in the absence of chemical substance (yeast gene YBR256C): 3.5 | The level of expressed mRNA in the presence of chemical substance/The level of expressed mRNA in the absence of chemical substance (yeast gene YBR296C): 2.0 | The level of expressed mRNA in the presence of chemical substance/The level of expressed mRNA in the absence of chemical substance (yeast gene YCL009C): 1.6 | The level of expressed mRNA in the presence of chemical substance/The level of expressed mRNA in the absence of chemical substance (yeast gene YCL064C): 1.6 | level of expressed mRNA in the presence/in the absence of chemical substance (yeast gene YCR010C): 1.0 | level of expressed mRNA in the presence/in the absence of chemical substance (yeast gene YCR034W): 0.2 | The level of expressed mRNA in the presence of chemical substance/The level of expressed mRNA in the absence of chemical substance (yeast gene YCR037C): 1.3 | The level of expressed mRNA in the presence of chemical substance/The level of expressed mRNA in the absence of chemical substance (yeast gene YCR048W): 1.3 | The level of expressed mRNA in the presence of chemical substance/The level of expressed mRNA in the absence of chemical substance (yeast gene YCR098C): 1.4 | The level of expressed mRNA in the presence of chemical substance/The level of expressed mRNA in the absence of chemical substance (yeast gene YDL021W): 5.3 | The level of expressed mRNA in the presence of chemical substance/The level of expressed mRNA in the absence of chemical substance (yeast gene YDL022W): 1.5 | The level of expressed mRNA in the presence of chemical substance/The level of expressed mRNA in the absence of chemical substance (yeast gene YDR009W): 1.2 | The level of expressed mRNA in the presence of chemical substance/The level of expressed mRNA in the absence of chemical substance (yeast gene YDR019C): 1.0 | level of expressed mRNA in the presence/in the absence of chemical substance (yeast gene YDR050C): 2.0 | level of expressed mRNA in the presence/in the absence of chemical substance (yeast gene YDR073W): 0.6 | level of expressed mRNA in the presence/in the absence of chemical substance (yeast gene YDR123C): 0.9 | level of expressed mRNA in the presence/in the absence of chemical substance (yeast gene YDR178W): 1.5 | level of expressed mRNA in the presence/in the absence of chemical substance (yeast gene YDR277C): 1.2 | level of expressed mRNA in the presence/in the absence of chemical substance (yeast gene YDR284C): 1.2 | level of expressed mRNA in the presence/in the absence of chemical substance (yeast gene YDR345C): 1.2 | level of expressed mRNA in the presence/in the absence of chemical substance (yeast gene YDR400W): 0.7 | level of expressed mRNA in the presence/in the absence of chemical substance (yeast gene YDR408C): 0.5 | The level of expressed mRNA in the presence of chemical substance/The level of expressed mRNA in the absence of chemical substance (yeast gene YDR410C): 1.2 | level of expressed mRNA in the presence/in the absence of chemical substance (yeast gene YDR483W): 1.3 | The level of expressed mRNA in the presence of chemical substance/The level of expressed mRNA in the absence of chemical substance (yeast gene YDR487C): 1.5 | The level of expressed mRNA in the presence of chemical substance/The level of expressed mRNA in the absence of chemical substance (yeast gene YDR502C): 1.2 | The level of expressed mRNA in the presence of chemical substance/The level of expressed mRNA in the absence of chemical substance (yeast gene YDR516C): 2.5 | The level of expressed mRNA in the presence of chemical substance/The level of expressed mRNA in the absence of chemical substance (yeast gene YEL011W): 1.5 | level of expressed mRNA in the presence/in the absence of chemical substance (yeast gene YEL063C): 1.1 | level of expressed mRNA in the presence/in the absence of chemical substance (yeast gene YER015W): 0.8 | The level of expressed mRNA in the presence of chemical substance/The level of expressed mRNA in the absence of chemical substance (yeast gene YER026C): 1.9 | The level of expressed mRNA in the presence of chemical substance/The level of expressed mRNA in the absence of chemical substance (yeast gene YER053C): 4.1 | The level of expressed mRNA in the presence of chemical substance/The level of expressed mRNA in the absence of chemical substance (yeast gene YER069W): 1.4 | level of expressed mRNA in the presence/in the absence of chemical substance (yeast gene YER081W): 0.6 | The level of expressed mRNA in the presence of chemical substance/The level of expressed mRNA in the absence of chemical substance (yeast gene YER096W): 2.3 | level of expressed mRNA in the presence/in the absence of chemical substance (yeast gene YER120W): 1.0 | The level of expressed mRNA in the presence of chemical substance/The level of expressed mRNA in the absence of chemical substance (yeast gene YER178W): 2.4 | level of expressed mRNA in the presence/in the absence of chemical substance (yeast gene YFL011W): 0.8 | The level of expressed mRNA in the presence of chemical substance/The level of expressed mRNA in the absence of chemical substance (yeast gene YFL030W): 2.2 | The level of expressed mRNA in the presence of chemical substance/The level of expressed mRNA in the absence of chemical substance (yeast gene YFL031W): 2.6 | The level of expressed mRNA in the presence of chemical substance/The level of expressed mRNA in the absence of chemical substance (yeast gene YFL056C): 4.7 | The level of expressed mRNA in the presence of chemical substance/The level of expressed mRNA in the absence of chemical substance (yeast gene YFL057C): 4.1 | level of expressed mRNA in the presence/in the absence of chemical substance (yeast gene YGL012W): 0.3 | The level of expressed mRNA in the presence of chemical substance/The level of expressed mRNA in the absence of chemical substance (yeast gene YGL022W): 1.0 | level of expressed mRNA in the presence/in the absence of chemical substance (yeast gene YGL115W): 0.7 | The level of expressed mRNA in the presence of chemical substance/The level of expressed mRNA in the absence of chemical substance (yeast gene YGL184C): 7.4 | level of expressed mRNA in the presence/in the absence of chemical substance (yeast gene YGL205W): 1.0 | The level of expressed mRNA in the presence of chemical substance/The level of expressed mRNA in the absence of chemical substance (yeast gene YGL209W): 1.9 | The level of expressed mRNA in the presence of chemical substance/The level of expressed mRNA in the absence of chemical substance (yeast gene YGL248W): 2.0 | The level of expressed mRNA in the presence of chemical substance/The level of expressed mRNA in the absence of chemical substance (yeast gene YGR055W): 1.9 | level of expressed mRNA in the presence/in the absence of chemical substance (yeast gene YGR096W): 1.1 | level of expressed mRNA in the presence/in the absence of chemical substance (yeast gene YGR191W): 1.0 | The level of expressed mRNA in the presence of chemical substance/The level of expressed mRNA in the absence of chemical substance (yeast gene YGR194C): 2.2 | level of expressed mRNA in the presence/in the absence of chemical substance (yeast gene YGR204W): 1.3 | The level of expressed mRNA in the presence of chemical substance/The level of expressed mRNA in the absence of chemical substance (yeast gene YGR282C): 1.2 | level of expressed mRNA in the presence/in the absence of chemical substance (yeast gene YGR288W): 1.3 | level of expressed mRNA in the presence/in the absence of chemical substance (yeast gene YHR025W): 0.7 | The level of expressed mRNA in the presence of chemical substance/The level of expressed mRNA in the absence of chemical substance (yeast gene YHR111W): 2.2 | level of expressed mRNA in the presence/in the absence of chemical substance (yeast gene YHR123W): 1.5 | The level of expressed mRNA in the presence of chemical substance/The level of expressed mRNA in the absence of chemical substance (yeast gene YHR137W): 0.6 | The level of expressed mRNA in the presence of chemical substance/The level of expressed mRNA in the absence of chemical substance (yeast gene YHR176W): 1.9 | level of expressed mRNA in the presence/in the absence of chemical substance (yeast gene YHR210C): 0.4 | level of expressed mRNA in the presence/in the absence of chemical substance (yeast gene YIL006W): 0.8 | The level of expressed mRNA in the presence of chemical substance/The level of expressed mRNA in the absence of chemical substance (yeast gene YIL045W): 2.0 | The level of expressed mRNA in the presence of chemical substance/The level of expressed mRNA in the absence of chemical substance (yeast gene YIL107C): 1.9 | The level of expressed mRNA in the presence of chemical substance/The level of expressed mRNA in the absence of chemical substance (yeast gene YIL154C): 1.7 | The level of expressed mRNA in the presence of chemical substance/The level of expressed mRNA in the absence of chemical substance (yeast gene YIL155C): 2.0 | The level of expressed mRNA in the presence of chemical substance/The level of expressed mRNA in the absence of chemical substance (yeast gene YIL167W): 1.2 | The level of expressed mRNA in the presence of chemical substance/The level of expressed mRNA in the absence of chemical substance (yeast gene YIR034C): 2.6 | The level of expressed mRNA in the presence of chemical substance/The level of expressed mRNA in the absence of chemical substance (yeast gene YIR036C): 1.9 | The level of expressed mRNA in the presence of chemical substance/The level of expressed mRNA in the absence of chemical substance (yeast gene YJL031C): 2.6 | The level of expressed mRNA in the presence of chemical substance/The level of expressed mRNA in the absence of chemical substance (yeast gene YJL068C): 2.7 | The level of expressed mRNA in the presence of chemical substance/The level of expressed mRNA in the absence of chemical substance (yeast gene YJL088W): 1.0
